# Measured values from ChEMBL document CHEMBL3044672, “N9- and N7-(Chloromethyl Phenymethyl)Chloropurine Derivatives from , '-Dichloroxylenes: Synthesis and Anticancer Activity” (2005).
# Assays:
# Type in all cases: functional
# [1] = test system: M14; assay: Cytotoxicity against Homo sapiens (human) M14 cells after 48 hr by sulforhodamine B assay; settings: M14, 48 h
# [2] = test system: Hs-578T; assay: Cytotoxicity against Homo sapiens (human) Hs 578T cells after 48 hr by sulforhodamine B assay
# [3] = test system: RPMI-8226; assay: Cytotoxicity against Homo sapiens (human) RPMI8226 cells after 48 hr by sulforhodamine B assay; settings: RPMI-8226, 48 h
# [4] = test system: SW-620; assay: Cytotoxicity against Homo sapiens (human) SW620 cells after 48 hr by sulforhodamine B assay; settings: SW-620, 48 h
# [5] = test system: HCT-15; assay: Cytotoxicity against Homo sapiens (human) HCT15 cells after 48 hr by sulforhodamine B assay; settings: HCT-15, 48 h
# [6] = test system: ACHN; assay: Cytotoxicity against Homo sapiens (human) ACHN cells after 48 hr by sulforhodamine B assay
# [7] = test system: MCF7; assay: Cytotoxicity against Homo sapiens (human) MCF7 cells assessed as cell growth at 10^-4 M after 48 hr by Alamar blue assay; settings: MCF7, 48 h, read-out: Activity
# [8] = test system: TK-10; assay: Cytotoxicity against Homo sapiens (human) TK10 cells after 48 hr by sulforhodamine B assay; settings: TK-10, 48 h
# [9] = test system: NCI-H460; assay: Cytotoxicity against Homo sapiens (human) NCI-H460 cells after 48 hr by sulforhodamine B assay; settings: NCI-H460, 48 h
# [10] = test system: UO-31; assay: Cytotoxicity against Homo sapiens (human) UO31 cells after 48 hr by sulforhodamine B assay; settings: UO-31, 48 h
# [11] = test system: SF-295; assay: Cytotoxicity against Homo sapiens (human) SF295 cells after 48 hr by sulforhodamine B assay; settings: SF-295, 48 h
# [12] = test system: BT-549; assay: Cytotoxicity against Homo sapiens (human) BT549 cells after 48 hr by sulforhodamine B assay; settings: BT-549, 48 h
# [13] = test system: OVCAR-8; assay: Cytotoxicity against Homo sapiens (human) OVCAR8 cells after 48 hr by sulforhodamine B assay; settings: OVCAR-8, 48 h
# [14] = test system: SK-MEL-28; assay: Cytotoxicity against Homo sapiens (human) SK-MEL-28 cells after 48 hr by sulforhodamine B assay; settings: SK-MEL-28, 48 h
# [15] = test system: SNB-19; assay: Cytotoxicity against Homo sapiens (human) SNB19 cells after 48 hr by sulforhodamine B assay; settings: SNB-19, 48 h
# [16] = test system: DU-145; assay: Cytotoxicity against Homo sapiens (human) DU145 cells after 48 hr by sulforhodamine B assay; settings: DU-145, 48 h
# [17] = test system: SNB-75; assay: Cytotoxicity against Homo sapiens (human) SNB75 cells after 48 hr by sulforhodamine B assay; settings: SNB-75, 48 h
# [18] = test system: LOX IMVI; assay: Cytotoxicity against Homo sapiens (human) LOXIMVI cells after 48 hr by sulforhodamine B assay
# [19] = test system: OVCAR-5; assay: Cytotoxicity against Homo sapiens (human) OVCAR5 cells after 48 hr by sulforhodamine B assay; settings: OVCAR-5, 48 h
# [20] = test system: SF-268; assay: Cytotoxicity against Homo sapiens (human) SF268 cells after 48 hr by sulforhodamine B assay; settings: SF-268, 48 h
# [21] = test system: SK-OV-3; assay: Cytotoxicity against Homo sapiens (human) SKOV3 cells after 48 hr by sulforhodamine B assay; settings: SK-OV-3, 48 h
# [22] = test system: 786-0; assay: Cytotoxicity against Homo sapiens (human) 786-0 cells after 48 hr by sulforhodamine B assay; settings: 786-0, 48 h
# [23] = test system: MCF7; assay: Cytotoxicity against Homo sapiens (human) MCF7 cells after 48 hr by sulforhodamine B assay; settings: MCF7, 48 h
# [24] = test system: T47D; assay: Cytotoxicity against Homo sapiens (human) T47D cells after 48 hr by sulforhodamine B assay
# [25] = test system: A498; assay: Cytotoxicity against Homo sapiens (human) A498 cells after 48 hr by sulforhodamine B assay; settings: A498, 48 h
# [26] = test system: HOP-92; assay: Cytotoxicity against Homo sapiens (human) HOP92 cells after 48 hr by sulforhodamine B assay; settings: HOP-92, 48 h
# [27] = test system: CCRF-CEM; assay: Cytotoxicity against Homo sapiens (human) CCRF-CEM cells after 48 hr by sulforhodamine B assay
# [28] = test system: NCI-H460; assay: Cytotoxicity against Homo sapiens (human) NCI-H460 cells assessed as cell growth at 10^-4 M after 48 hr by Alamar blue assay; settings: NCI-H460, 48 h, read-out: Activity
# [29] = read-out: LC50 (the source's name)
structure (smiles),measurement,setting,value
Nc1nc(Cl)c2ncn(Cc3cccc(CCl)c3)c2n1,GI50,[1],3.63 µM
same,LC50,[1],41.7 µM
same,TGI,[1],11.7 µM
same,GI50,[2],11.5 µM
same,LC50,[2],> 100 µM
same,TGI,[2],60.2 µM
same,GI50,[3],2.39 µM
same,TGI,[3],11.8 µM
same,CC50,[3]; [29],> 100 µM
same,GI50,[4],3.8 µM
same,TGI,[4],11.2 µM
same,CC50,[4]; [29],57.5 µM
same,GI50,[5],2.51 µM
same,TGI,[5],6.76 µM
same,CC50,[5]; [29],33.1 µM
same,GI50,[6],2.88 µM
same,TGI,[6],8.71 µM
same,CC50,[6]; [29],29.5 µM
same,growth at 100 µM,[7],0%
same,GI50,[8],2.39 µM
same,TGI,[8],7.08 µM
same,CC50,[8]; [29],27.5 µM
same,GI50,[9],4.26 µM
same,TGI,[9],15.8 µM
same,CC50,[9]; [29],47.9 µM
same,GI50,[10],13.5 µM
same,LC50 (concentration causing 50% net cell kill),[10],77.6 µM
same,TGI,[10],32.4 µM
same,GI50,[11],3.38 µM
same,TGI,[11],14.5 µM
same,CC50,[11]; [29],39.8 µM
same,GI50,[12],4.07 µM
same,LC50 (50% lethal concentration),[12],58.9 µM
same,TGI,[12],17.4 µM
same,GI50,[13],2.29 µM
same,LC50 (concentration killing 50% of cells),[13],53.7 µM
same,TGI,[13],6.76 µM
same,GI50,[14],4.46 µM
same,LC50 (concentration killing 50% of cells),[14],74.1 µM
same,TGI,[14],19.1 µM
same,GI50,[15],3.16 µM
same,LC50,[15],46.8 µM
same,TGI,[15],15.1 µM
same,GI50,[16],4.26 µM
same,LC50,[16],40.7 µM
same,TGI,[16],16.6 µM
same,GI50,[17],5.75 µM
same,TGI,[17],19.5 µM
same,CC50,[17]; [29],51.3 µM
same,GI50,[18],3.38 µM
same,LC50,[18],81.3 µM
same,TGI,[18],13.2 µM
same,GI50,[19],11 µM
same,TGI,[19],25.1 µM
same,CC50,[19]; [29],57.5 µM
same,GI50,[20],3.02 µM
same,TGI,[20],10.2 µM
same,CC50,[20]; [29],67.6 µM
same,GI50,[21],24 µM
same,LC50,[21],> 100 µM
same,TGI,[21],67.6 µM
same,GI50,[22],6.6 µM
same,LC50,[22],91.2 µM
same,TGI,[22],26.3 µM
same,GI50,[23],2.39 µM
same,LC50 (concentration killing 50% of cells),[23],53.7 µM
same,TGI,[23],9.55 µM
same,GI50,[24],6.02 µM
same,LC50,[24],> 100 µM
same,TGI,[24],37.1 µM
same,GI50,[25],25.1 µM
same,"LC50 (lethal concentration, 50% cell kill)",[25],> 100 µM
same,TGI,[25],51.3 µM
same,GI50,[26],0.63 µM
same,TGI,[26],38 µM
same,CC50,[26]; [29],> 100 µM
same,GI50,[27],3.02 µM
same,TGI,[27],> 100 µM
same,CC50,[27]; [29],> 100 µM
same,growth at 100 µM,[28],0%
